Experimental data taken from the NIST ThermoML archive (doi:10.1016/j.jct.2007.07.005).

Assay: xn = mol fraction of the nth substance listed
Conditions: Fluid (supercritical or subcritical phases), vibrating tube

CCCCCO [pentan-1-ol] + O=C=O
Conditions	mass density [kg/m3]
323.11 K, 21027 kPa, x2 = 0.1347	813.66
323.11 K, 21051 kPa, x2 = 0.6054	847.84
323.11 K, 22019 kPa, x2 = 0.6054	849.47
323.11 K, 22027 kPa, x2 = 0.1347	814.42
323.11 K, 23017 kPa, x2 = 0.1347	815.16
323.11 K, 23023 kPa, x2 = 0.6054	851.13
323.11 K, 24022 kPa, x2 = 0.1347	815.93
323.11 K, 24036 kPa, x2 = 0.6054	852.76
323.11 K, 24999 kPa, x2 = 0.1347	816.68
323.11 K, 25069 kPa, x2 = 0.6054	854.41
332.79 K, 493 kPa, x2 = 0	784.29
332.79 K, 1014 kPa, x2 = 0	784.76
332.79 K, 2006 kPa, x2 = 0	785.61
332.79 K, 3025 kPa, x2 = 0	786.48
332.79 K, 4011 kPa, x2 = 0	787.28
332.79 K, 5020 kPa, x2 = 0	788.11
332.79 K, 6003 kPa, x2 = 0	788.91
332.79 K, 6997 kPa, x2 = 0	789.73
332.79 K, 8009 kPa, x2 = 0	790.54
332.79 K, 8995 kPa, x2 = 0	791.31
332.79 K, 9996 kPa, x2 = 0	792.12
332.79 K, 11018 kPa, x2 = 0	792.9
332.79 K, 11995 kPa, x2 = 0	793.66
332.79 K, 13023 kPa, x2 = 0	794.45
332.79 K, 13999 kPa, x2 = 0	795.19
332.79 K, 15010 kPa, x2 = 0	795.95
332.79 K, 16028 kPa, x2 = 0	796.68
332.79 K, 17003 kPa, x2 = 0	797.41
332.79 K, 18040 kPa, x2 = 0	798.14
332.79 K, 19004 kPa, x2 = 0	798.84
332.79 K, 20035 kPa, x2 = 0	799.59
332.79 K, 21024 kPa, x2 = 0	800.29
332.79 K, 21993 kPa, x2 = 0	800.97
332.79 K, 23039 kPa, x2 = 0	801.71
332.79 K, 24015 kPa, x2 = 0	802.4
332.79 K, 25022 kPa, x2 = 0	803.12
332.93 K, 8022 kPa, x2 = 0.3624	806.47
332.93 K, 9003 kPa, x2 = 0.3624	807.66
332.93 K, 9033 kPa, x2 = 0.4651	808.88
332.93 K, 10018 kPa, x2 = 0.3624	808.86
332.93 K, 10027 kPa, x2 = 0.4651	810.57
332.93 K, 10989 kPa, x2 = 0.3624	809.94
332.93 K, 11000 kPa, x2 = 0.4651	812.22
332.93 K, 12008 kPa, x2 = 0.3624	811.14
332.93 K, 12019 kPa, x2 = 0.4651	813.92
332.93 K, 12032 kPa, x2 = 0.8067	770.68
332.93 K, 12989 kPa, x2 = 0.9757	593.78
332.93 K, 12995 kPa, x2 = 0.8067	780.67
332.93 K, 13015 kPa, x2 = 0.3624	812.22
332.93 K, 13017 kPa, x2 = 0.4651	815.52
332.93 K, 13981 kPa, x2 = 0.3624	813.29
332.93 K, 13992 kPa, x2 = 0.9757	633.72
332.93 K, 14013 kPa, x2 = 0.8067	788.98
332.93 K, 14027 kPa, x2 = 0.4651	817.14
332.93 K, 15014 kPa, x2 = 0.9757	664.21
332.93 K, 15021 kPa, x2 = 0.3624	814.39
332.93 K, 15023 kPa, x2 = 0.4651	818.68
332.93 K, 15025 kPa, x2 = 0.8067	796.09
332.93 K, 15992 kPa, x2 = 0.3624	815.41
332.93 K, 16007 kPa, x2 = 0.4651	820.18
332.93 K, 16011 kPa, x2 = 0.9757	687.95
332.93 K, 16021 kPa, x2 = 0.8067	802.3
332.93 K, 17012 kPa, x2 = 0.3624	816.44
332.93 K, 17014 kPa, x2 = 0.4651	821.68
332.93 K, 17021 kPa, x2 = 0.8067	808.04
332.93 K, 17022 kPa, x2 = 0.9757	707.96
332.93 K, 18010 kPa, x2 = 0.3624	817.48
332.93 K, 18021 kPa, x2 = 0.8067	813.35
332.93 K, 18021 kPa, x2 = 0.9757	724.84
332.93 K, 18040 kPa, x2 = 0.4651	823.21
332.93 K, 19008 kPa, x2 = 0.9757	739.5
332.93 K, 19011 kPa, x2 = 0.8067	818.27
332.93 K, 19015 kPa, x2 = 0.4651	824.63
332.93 K, 19032 kPa, x2 = 0.3624	818.5
332.93 K, 19997 kPa, x2 = 0.3624	819.44
332.93 K, 20022 kPa, x2 = 0.8067	822.95
332.93 K, 20026 kPa, x2 = 0.4651	826.05
332.93 K, 20041 kPa, x2 = 0.9757	753.18
332.93 K, 21019 kPa, x2 = 0.4651	827.43
332.93 K, 21021 kPa, x2 = 0.9757	764.86
332.93 K, 21024 kPa, x2 = 0.3624	820.43
332.93 K, 21029 kPa, x2 = 0.8067	827.4
332.93 K, 21989 kPa, x2 = 0.8067	831.41
332.93 K, 21997 kPa, x2 = 0.4651	828.79
332.93 K, 22013 kPa, x2 = 0.3624	821.46
332.93 K, 22013 kPa, x2 = 0.9757	775.63
332.93 K, 23008 kPa, x2 = 0.8067	835.47
332.93 K, 23021 kPa, x2 = 0.3624	822.42
332.93 K, 23031 kPa, x2 = 0.4651	830.22
332.93 K, 23997 kPa, x2 = 0.3624	823.36
332.93 K, 24024 kPa, x2 = 0.4651	831.62
332.93 K, 24893 kPa, x2 = 0.3624	824.24
332.95 K, 13016 kPa, x2 = 0.8573	754.58
332.95 K, 13026 kPa, x2 = 0.9216	704.11
332.95 K, 14021 kPa, x2 = 0.9216	723.65
332.95 K, 14042 kPa, x2 = 0.8573	766.56
332.95 K, 15016 kPa, x2 = 0.9216	739.26
332.95 K, 15028 kPa, x2 = 0.8573	776.2
332.95 K, 15984 kPa, x2 = 0.9216	752.12
332.95 K, 16013 kPa, x2 = 0.8573	784.6
332.95 K, 17014 kPa, x2 = 0.8573	792.22
332.95 K, 17039 kPa, x2 = 0.9216	764.27
332.95 K, 18011 kPa, x2 = 0.8573	799.17
332.95 K, 18019 kPa, x2 = 0.9216	774.24
332.95 K, 19005 kPa, x2 = 0.9216	783.37
332.95 K, 19027 kPa, x2 = 0.8573	805.67
332.95 K, 20006 kPa, x2 = 0.8573	811.5
332.95 K, 20008 kPa, x2 = 0.9216	791.89
332.95 K, 20996 kPa, x2 = 0.8573	817.04
332.95 K, 21037 kPa, x2 = 0.9216	799.89
332.95 K, 21691 kPa, x2 = 0.9216	804.69
332.95 K, 22056 kPa, x2 = 0.8573	822.62
332.95 K, 23032 kPa, x2 = 0.8573	827.46
332.95 K, 24010 kPa, x2 = 0.8573	832.11
332.96 K, 3007 kPa, x2 = 0.0816	789.68
332.96 K, 4028 kPa, x2 = 0.0816	790.6
332.96 K, 4991 kPa, x2 = 0.0816	791.47
332.96 K, 5998 kPa, x2 = 0.0816	792.36
332.96 K, 7025 kPa, x2 = 0.0816	793.27
332.96 K, 7995 kPa, x2 = 0.0816	794.13
332.96 K, 9031 kPa, x2 = 0.0816	795.01
332.96 K, 10005 kPa, x2 = 0.0816	795.83
332.96 K, 11008 kPa, x2 = 0.0816	796.67
332.96 K, 12026 kPa, x2 = 0.0816	797.53
